Source: patent US20110098309A1, “METHODS OF INHIBITING THE FORMATION OF AMYLOID-BETA DIFFUSABLE LIGANDS USING ACYLHYDRAZIDE COMPOUNDS” (priority 2007, published 2011)
One block for each compound: values may come before it.

Target: Aβ1-42 (Homo sapiens, UniProt P05067)
Assay: FRET assay of Aβ1-42 oligomer (ADDL) assembly inhibition
Format: biochemical
Conditions: 0.2 μM FITC-Aβ(1-42) and 0.8 μM Aβ(1-42), 37° C., six concentrations from about 10 μM to about 0.03 μM
Excerpt: Fluorescence (or Förster) Resonance Energy Transfer (FRET) is a distance-dependent, non-radiative transfer of energy in which the de-excitation of one fluorophore (donor) is coupled to excitation of another fluorophore (acceptor). FRET occurs if (1) the quantum of energy emitted by a donor fluorophore corresponds to an acceptor fluorophore's excitation energy, (2) the orientations of donor and acceptor transition dipoles are nearly parallel and (3) the donor fluorescent emission spectrum overlaps the acceptor absorption spectrum.
In this assay, assembly of Aβ1-42 oligomer formation is monitored by FRET using N-terminal conjugates of fluorescein-Aβ1-42 as both the donor and acceptor fluorophore (fluorescein-fluorescein Ro˜45 Å). […] Inhibition of Aβ1-42 assembly is observed as the absence or attenuation of fluorescein quenching.
FRET and FP assays are performed in 384-well Corning Non-Binding Surface, black, opaque microtiter plates, and the assay buffer consists of 25 mM MOPS-Tris (pH 8.0) with 100 mM MgCl2. The assay volume, containing 0.2 μM FITC-Aβ(1-42) and 0.8 μM Aβ(1-42), is 50 μl and the temperature is 37° C. […] Kinetic traces are collected by recording fluorescence intensity and polarization readings every five minutes over about a three hour time course. […] Positive control reactions contain all buffer components in the absence of added small molecule or antibody reagents. To test for ADDL assembly inhibition, the compound was incubated with the peptide mixture at six concentrations from about 10 μM decreasing to about 0.03 μM.

Chain of Aβ1-42 (P05067 672-713 limits assumed): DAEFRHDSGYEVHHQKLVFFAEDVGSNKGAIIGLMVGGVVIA

SMILES: COc1ccc(O)c(/C=N/NC(=O)c2ccc3ccccc3c2O)c1 [Compound 38, 1-hydroxy-N′-(2-hydroxy-5-methoxybenzylidene)-2-naphtho-hydrazide]
IC50: 1.2 µM

SMILES: O=C(N/N=C/c1cc(F)cc(Cl)c1O)c1ccccc1O [Compound 40, N′-(3-chloro-5-fluoro-2-hydroxybenzylidene)-2-hydroxy-benzohydrazide]
IC50: 2.1 µM

SMILES: O=C(N/N=C/c1c(O)cccc1O)c1ccccc1O [Compound 41, N′-(2,6-dihydroxybenzylidene)-2-hydroxy benzohydrazide]
IC50: 2.3 µM

SMILES: O=C(N/N=C/c1cc(Br)cc(Br)c1O)c1ccccc1O [Compound 42, N′-(3,5-dibromo-2-hydroxybenzylidene)-2-hydroxybenzohydrazide]
IC50: 2.8 µM

SMILES: O=C(N/N=C/c1c(O)ccc2ccccc12)c1ccccc1NS(=O)(=O)c1ccc(Cl)cc1 [Compound 43, 4-chloro-N-(2-(2-((2-hydroxynaphthalen-1-yl)methylene)hydrazinecarbonyl)phenyl) benzenesulfonamide]
IC50: 3.2 µM

SMILES: COc1ccc(O)c(/C=N/NC(=O)c2[nH]c3ccccc3c2Cl)c1 [Compound 44, 3-chloro-N′-(2-hydroxy-5-methoxybenzylidene)-1H-indole-2-carbohydrazide]
IC50: 3.2 µM

SMILES: O=C(N/N=C/c1c(O)cccc1Br)c1ccccc1O [Compound 45, N′-(2-bromo-6-hydroxybenzylidene)-2-hydroxybenzo-hydrazide]
IC50: 3.3 µM

SMILES: O=C(N/N=C/c1cc(C2CCCCC2)cc(Cl)c1O)c1ccccc1O [Compound 46, N′-(3-chloro-5-cyclohexyl-2-hydroxybenzylidene)-2-hydroxybenzo-hydrazide]
IC50: 3.3 µM

SMILES: Cc1occc1C(=O)N/N=C/c1cc(Br)cc(Br)c1O [Compound 49, N′-(3,5-dibromo-2-hydroxy-benzylidene)-2-methylfuran-3-carbohydrazide]
IC50: 3.8 µM

SMILES: COc1ccc(O)c(/C=N/NC(=O)c2cccc3c2NC(=O)C3)c1 [Compound 52, N′-(2-hydroxy-5-methoxy-benzylidene)-2-oxoindoline-7-carbohydrazide]
IC50: 4.2 µM

SMILES: Cc1ccc(C(=O)N/N=C/c2cccc(C)c2O)cn1 [Compound 53, N′-(2-hydroxy-3-methyl-benzylidene)-6-methylnicotino-hydrazide]
IC50: 4.6 µM

SMILES: COc1cccc(O)c1/C=N/NC(=O)c1ccccc1O [Compound 55, 2-hydroxy-N′-(2-hydroxy-6-methoxy-benzylidene)benzohydrazide]
IC50: 5.3 µM

SMILES: COc1ccc(O)c(/C=N/NC(=O)c2ccc(-n3c(C)ccc3C)cc2)c1 [Compound 56, 4-(2,5-dimethyl-1H-pyrrol-1-yl)-N′-(2-hydroxy-5-methoxy-benzylidene) benzohydrazide]
IC50: 6.1 µM

SMILES: O=C(N/N=C/c1cc(OC(F)(F)F)ccc1O)c1ccccc1O [Compound 57, 2-hydroxy-N′-(2-hydroxy-5-(trifluoro-methoxy)benzylidene)benzohydrazide]
IC50: 6.3 µM

SMILES: O=C(N/N=C/c1cc(Cl)ccc1O)c1ccccc1O [Compound 59, N′-(5-chloro-2-hydroxy-benzylidene)-2-hydroxy-benzohydrazide]
IC50: 6.5 µM

SMILES: C=CCc1cccc(/C=N/NC(=O)c2ccc(I)cc2)c1O [Compound 60, N′-(3-allyl-2-hydroxy-benzylidene)-4-iodo-benzohydrazide]
IC50: 6.5 µM

SMILES: O=C(N/N=C/c1c(O)ccc2ccccc12)c1sc2cc(F)ccc2c1Cl [Compound 61, 3-chloro-6-fluoro-N′-((2-hydroxynaphthalen-1-yl)methylene) benzo[b]thiophene-2-carbohydrazide]
IC50: 6.7 µM

SMILES: COc1ccc(O)c(/C=N/NC(=O)c2cccc(C)c2O)c1 [Compound 63, 2-hydroxy-N′-(2-hydroxy-5-methoxy-benzylidene)-3-methyl-benzohydrazide]
IC50: 7 µM

SMILES: COc1ccc(O)c(/C=N/NC(=O)c2c(O)ccc3ccccc23)c1 [Compound 66, 2-hydroxy-N′-(2-hydroxy-5-methoxy-benzylidene)-1-naphtho-hydrazide]
IC50: 7.7 µM

SMILES: O=C(N/N=C/c1cc(Cl)cc(Cl)c1O)c1ccccc1O [Compound 69, N′-(3,5-dichloro-2-hydroxy-benzylidene)-2-hydroxy-benzohydrazide]
IC50: 9.2 µM

SMILES: COc1ccc(O)c(/C=N/NC(=O)c2scc(C)c2Cl)c1 [Compound 70, 3-chloro-N′-(2-hydroxy-5-methoxy-benzylidene)-4-methylthiophene-2-carbohydrazide]
IC50: 9.4 µM

SMILES: COc1ccc(O)c(/C=N/NC(=O)c2ccccc2NS(=O)(=O)c2ccc(Cl)cc2)c1 [Compound 71, 4-chloro-N-(2-(2-(2-hydroxy-5-methoxy-benzylidene)hydrazine-carbonyl)phenyl)benzene-sulfonamide]
IC50: 9.7 µM

SMILES: O=C(N/N=C/c1ccc2ccccc2c1O)c1ccccc1O [Compound 72, 2-hydroxy-N′-((1-hydroxy-naphthalen-2-yl)methylene)benzohydrazide]
IC50: 10.4 µM

SMILES: COc1ccc(O)c(/C=N/NC(=O)c2cc(C)ccc2O)c1 [Compound 73, 2-hydroxy-N′-(2-hydroxy-5-methoxy-benzylidene)-5-methyl-benzohydrazide]
IC50: 10.4 µM

SMILES: COc1ccc(O)c(/C=N/NC(=O)c2cc(F)ccc2O)c1 [Compound 75, 5-fluoro-2-hydroxy-N′-(2-hydroxy-5-methoxy-benzylidene)benzohydrazide]
IC50: 10.9 µM

SMILES: COc1ccc(C(=O)N/N=C/c2cc(OC)ccc2O)c(O)c1 [Compound 76, 2-hydroxy-N′-(2-hydroxy-5-methoxy-benzylidene)-4-methoxy-benzohydrazide]
IC50: 11.1 µM

SMILES: CCOC(=O)c1c(C)oc2cc(Br)c(O)c(/C=N/NC(=O)c3ccccc3O)c12 [Compound 77, ethyl 6-bromo-5-hydroxy-4-((2-(2-hydroxybenzoyl)hydrazono)methyl)-2-methyl-benzofuran-3-carboxylate]
IC50: 11.6 µM

SMILES: C/C(=N\NC(=O)c1ccccc1O)c1ccc(C)cc1 [Compound 79, 2-hydroxy-N′-(1-p-tolylethylidene) benzohydrazide]
IC50: 13.3 µM

SMILES: CCN(CC)c1ccc(/C=N/NC(=O)c2ccccc2O)c(O)c1 [Compound 80, N'-(4-(diethylamino)-2-hydroxy-benzylidene)-2-hydroxy-benzohydrazide]
IC50: 14.4 µM

Continued, values first:

IC50: 1.6 µM
SMILES: O=C(N/N=C/c1cc(Br)cc(I)c1O)c1cccc(F)c1 [Compound 39, N′-(5-bromo-2-hydroxy-3-iodobenzylidene)-3-fluoro-benzohydrazide]

IC50: 3.5 µM
SMILES: CC(C)(C)c1ccc(O)c(/C=N/NC(=O)c2ccccc2O)c1 [Compound 47, N′-(5-tert-butyl-2-hydroxybenzylidene)-2-hydroxy-benzohydrazide]

IC50: 3.7 µM
SMILES: COc1cccc(-c2ccc(O)c(/C=N/NC(=O)c3ccccc3O)c2)c1 [Compound 48, 2-hydroxy-N′-((4-hydroxy-3′-methoxybiphenyl-3-yl)methylene) benzohydrazide]

IC50: 4.1 µM
SMILES: O=C(N/N=C/c1cc(Br)ccc1O)c1ccccc1O [Compound 50, N′-(5-bromo-2-hydroxy-benzylidene)-2-hydroxybenzohydrazide]

IC50: 4.2 µM
SMILES: COc1ccc(O)c(/C=N/NC(=O)c2ccc(Cl)cc2O)c1 [Compound 51, 4-chloro-2-hydroxy-N′-(2-hydroxy-5-methoxy-benzylidene)benzohydrazide]

IC50: 5 µM
SMILES: Cn1cc(I)c(C(=O)N/N=C/c2c(O)ccc3ccccc23)n1 [Compound 54, N′-((2-hydroxy-naphthalen-1-yl)methylene)-4-iodo-1-methyl-1H-pyrazole-3-carbohydrazide]

IC50: 6.4 µM
SMILES: COc1ccc(O)c(/C=N/NC(=O)c2cccc3cc[nH]c23)c1 [Compound 58, N′-(2-hydroxy-5-methoxy-benzylidene)-1H-indole-7-carbohydrazide]

IC50: 6.7 µM
SMILES: O=C(N/N=C/c1ccc(O)cc1O)c1ccccc1NS(=O)(=O)c1ccc(Cl)cc1 [Compound 62, 4-chloro-N-(2-(2-(2,4-dihydroxy-benzylidene)hydrazine-carbonyl)phenyl)benzene-sulfonamide]

IC50: 7.1 µM
SMILES: NC(=O)c1ccccc1/C=N/NC(=O)c1ccccc1O [Compound 64, 2-((2-(2-hydroxybenzoyl)hydrazono)methyl)benzamide]

IC50: 7.5 µM
SMILES: Nc1ccc(Cl)cc1/C=N/NC(=O)c1ccccc1O [Compound 65, N′-(2-amino-5-chloro-benzylidene)-2-hydroxy-benzohydrazide]

IC50: 8.3 µM
SMILES: COc1ccc(O)c(/C=N/NC(=O)c2ccc(F)cc2O)c1 [Compound 67, 4-fluoro-2-hydroxy-N′-(2-hydroxy-5-methoxy-benzylidene)benzohydrazide]

IC50: 9.2 µM
SMILES: Cc1ccc(O)c(/C=N/NC(=O)c2ccccc2O)c1 [Compound 68, 2-hydroxy-N′-(2-hydroxy-5-methyl-benzylidene)benzohydrazide]

IC50: 10.9 µM
SMILES: O=C(N/N=C/c1cccc(F)c1O)c1ccccc1O [Compound 74, N′-(3-fluoro-2-hydroxy-benzylidene)-2-hydroxy-benzohydrazide]

IC50: 11.6 µM
SMILES: COc1ccc(O)c(/C=N/NC(=O)c2cc(-c3ccc4c(c3)OCO4)n[nH]2)c1 [Compound 78, 3-(benzo[d][1,3]dioxol-5-yl)-N′-(2-hydroxy-5-methoxybenzylidene)-1H-pyrazole-5-carbohydrazide]
